Source: patent publication US20220409620A1, “REDUCING IMMUNOGENICITY TO PEGLOTICASE” (Horizon Pharma Rheumatology LLC, priority 2016, published 2022)

Tested on: adult patients with uncontrolled gout
Experiment: Serum uric acid (sUA) levels and sUA responder rate, open-label study of pegloticase with MTX (MIRROR OL)
Type: in vivo, human
Details: mITT Population
Description: The primary objective is to estimate the response rate during Month 6 (Weeks 20, 22, and 24), as measured by the sustained normalization of serum uric acid (SUA) to <6 mg/dL for at least 80% of the time during Month 6 in subjects receiving KXX with MTX.
The primary efficacy outcome endpoint is the sustained normalization of SUA to <6 mg/dL for at least 80% of the time during month 6 (weeks 20, 22, and 24) in subjects receiving KXX with MTX. […] Participants who achieve this endpoint were classified as “responders.” Serum uric acid (SUA) responders may also be defined as participants achieving and maintaining SUA <6 mg/dL for at least 80% of the time during Month 6 (Weeks 20, 22, and 24).
Blood samples may be collected prior to each pegloticase infusion for measurement of SUA levels using the Beckman Coulter AU System Uric Acid procedure. Participants were declared “non-responders” if there were SUA measures >6 mg/dL at 2 consecutive study visits beginning with the week 2 visit. […] This assumption and subsequent discontinuation of pegloticase was consistent with the protocol of large phase III randomized controlled trials and the product label. A formal stopping rule was 2 occasions of SUA levels of greater than 6 mg/dL.
Clinical Chemistry—Blood samples were collected prior to each pegloticase infusion for measurement of SUA levels (primary efficacy parameter) using the Beckman Coulter AU System Uric Acid procedure. In this procedure uric acid is converted to hydrogen peroxide. Hydrogen peroxide reacts with reagent to produce a chromophore which is read bichromatically at 660/800 nm. The amount of dye formed is proportional to the uric acid concentration in the sample.
Serum samples for measurement of SUA levels were collected at the Screening Visit, the Week −4 Visit (prior to the first dose of MTX), and the Week −2 Visit during the MTX Run-in Period; within 48 hours prior to each pegloticase infusion and after the end of each pegloticase infusion prior to discharge from the site during the Pegloticase+IMM Period; at the non-infusion Week 52/End of Study/Early Termination Visits and at the Post Treatment 3 and 6 Month Follow-up Visits. Additional serum samples for SUA levels were collected at optional non-infusion (Frequent Sampling) Visits at Weeks 1 and 7. […] Subjects with SUA level >6 mg/dL at 2 consecutive visits beginning at Week 2 visit discontinued treatment, completed the End of Pegloticase Infusion Visit procedures within 2 weeks and continued the subject visits according to the protocol (without treatment).
Efficacy analyses were performed using the modified intention-to-treat (mITT) population, defined as all enrolled subjects who received ≥1 dose of pegloticase. The proportion of Month 6 responders was summarized, along with a 95% confidence interval for the proportion. The proportion of Month 3 and overall (Months 3 and 6 combined) responders was analyzed similarly.
A subject was declared a non-responder if the subject had SUA level >6 mg/dL at 2 consecutive study visits beginning with the Week 2 Visit. In addition, a subject who withdraws from study treatment for any reason after the first dose of pegloticase in the KXX+MTX Period and prior to Month 6 (for the primary endpoint) or Month 3 (for the secondary endpoint) was considered a non-responder if SUA values were not collected at the planned time points.
Patients were administered oral MTX (15 mg/week) and folate (1 mg/day) 4 weeks prior to the first pegloticase infusion (Day 1) and throughout the pegloticase treatment period. Blood was drawn prior to each infusion to measure sUA level, monitor clinical parameters, and examine for ADA development. All patients followed typical IR prophylaxis protocols (fexofenadine one day before and the morning of each infusion and acetaminophen and IV corticosteroid the morning of each infusion).

Substance: pegloticase
- Serum Uric Acid, Observed, Mean (SD) (Week 7): 0.30 (0.000) mg/dL
- Serum Uric Acid, Observed, Median (Week 7): 0.30 mg/dL
- sUA <6 mg/dL, n (%) (Week 7): 4 (100%)
- Serum Uric Acid, Change from Baseline, Mean (SD) (Week 8 - Post-Infusion): −8.98 (2.679) mg/dL
- Serum Uric Acid, Change from Baseline, Median (Week 8 - Post-Infusion): -8.95 mg/dL
- Serum Uric Acid, Observed, Mean (SD) (Week 8 - Post-Infusion): 0.30 (0.000) mg/dL
- Serum Uric Acid, Observed, Median (Week 8 - Post-Infusion): 0.30 mg/dL
- sUA <6 mg/dL, n (%) (Week 8 - Post-Infusion): 12 (100%)
- Serum Uric Acid, Change from Baseline, Mean (SD) (Week 8 - Pre-Infusion): −8.20 (3.624) mg/dL
- Serum Uric Acid, Change from Baseline, Median (Week 8 - Pre-Infusion): -8.33 mg/dL
- Serum Uric Acid, Observed, Mean (SD) (Week 8 - Pre-Infusion): 1.08 (2.472) mg/dL
- Serum Uric Acid, Observed, Median (Week 8 - Pre-Infusion): 0.30 mg/dL
- sUA <6 mg/dL, n (%) (Week 8 - Pre-Infusion): 11 (91.7%)
- Serum Uric Acid, Change from Baseline, Mean (SD) (Week 10 - Post-Infusion): −8.97 (2.810) mg/dL
- Serum Uric Acid, Change from Baseline, Median (Week 10 - Post-Infusion): -8.80 mg/dL
- Serum Uric Acid, Observed, Mean (SD) (Week 10 - Post-Infusion): 0.30 (0.000) mg/dL
- Serum Uric Acid, Observed, Median (Week 10 - Post-Infusion): 0.30 mg/dL
- sUA <6 mg/dL, n (%) (Week 10 - Post-Infusion): 11 (100%)
- Serum Uric Acid, Change from Baseline, Mean (SD) (Week 10 - Pre-Infusion): −8.33 (3.476) mg/dL
- Serum Uric Acid, Change from Baseline, Median (Week 10 - Pre-Infusion): -8.70 mg/dL
- Serum Uric Acid, Observed, Mean (SD) (Week 10 - Pre-Infusion): 0.95 (2.252) mg/dL
- Serum Uric Acid, Observed, Median (Week 10 - Pre-Infusion): 0.30 mg/dL
- sUA <6 mg/dL, n (%) (Week 10 - Pre-Infusion): 11 (91.7%)
- Serum Uric Acid, Change from Baseline, Mean (SD) (Week 12 - Post-Infusion): −9.13 (2.911) mg/dL
- Serum Uric Acid, Change from Baseline, Median (Week 12 - Post-Infusion): -9.05 mg/dL
- Serum Uric Acid, Observed, Mean (SD) (Week 12 - Post-Infusion): 0.30 (0.000) mg/dL
- Serum Uric Acid, Observed, Median (Week 12 - Post-Infusion): 0.30 mg/dL
- sUA <6 mg/dL, n (%) (Week 12 - Post-Infusion): 10 (100%)
- Serum Uric Acid, Change from Baseline, Mean (SD) (Week 12 - Pre-Infusion): −8.98 (2.806) mg/dL
- Serum Uric Acid, Change from Baseline, Median (Week 12 - Pre-Infusion): -8.80 mg/dL
- Serum Uric Acid, Observed, Mean (SD) (Week 12 - Pre-Infusion): 0.30 (0.015) mg/dL
- Serum Uric Acid, Observed, Median (Week 12 - Pre-Infusion): 0.30 mg/dL
- sUA <6 mg/dL, n (%) (Week 12 - Pre-Infusion): 11 (100%)
- Serum Uric Acid, Change from Baseline, Mean (SD) (Week 14 - Post-Infusion): −9.01 (2.959) mg/dL
- Serum Uric Acid, Change from Baseline, Median (Week 14 - Post-Infusion): -9.05 mg/dL
- Serum Uric Acid, Observed, Mean (SD) (Week 14 - Post-Infusion): 0.30 (0.000) mg/dL
- Serum Uric Acid, Observed, Median (Week 14 - Post-Infusion): 0.30 mg/dL
- sUA <6 mg/dL, n (%) (Week 14 - Post-Infusion): 10 (100%)
- Serum Uric Acid, Change from Baseline, Mean (SD) (Week 14 - Pre-Infusion): −8.97 (2.810) mg/dL
- Serum Uric Acid, Change from Baseline, Median (Week 14 - Pre-Infusion): -8.80 mg/dL
- Serum Uric Acid, Observed, Mean (SD) (Week 14 - Pre-Infusion): 0.30 (0.000) mg/dL
- Serum Uric Acid, Observed, Median (Week 14 - Pre-Infusion): 0.30 mg/dL
- sUA <6 mg/dL, n (%) (Week 14 - Pre-Infusion): 11 (100%)
- Serum Uric Acid, Change from Baseline, Mean (SD) (Week 16 - Post-Infusion): −8.97 (2.810) mg/dL
- Serum Uric Acid, Change from Baseline, Median (Week 16 - Post-Infusion): -8.80 mg/dL
- Serum Uric Acid, Observed, Mean (SD) (Week 16 - Post-Infusion): 0.30 (0.000) mg/dL
- Serum Uric Acid, Observed, Median (Week 16 - Post-Infusion): 0.30 mg/dL
- sUA <6 mg/dL, n (%) (Week 16 - Post-Infusion): 11 (100%)
- Serum Uric Acid, Change from Baseline, Mean (SD) (Week 16 - Pre-Infusion): −8.97 (2.810) mg/dL
- Serum Uric Acid, Change from Baseline, Median (Week 16 - Pre-Infusion): -8.80 mg/dL
- Serum Uric Acid, Observed, Mean (SD) (Week 16 - Pre-Infusion): 0.30 (0.000) mg/dL
- Serum Uric Acid, Observed, Median (Week 16 - Pre-Infusion): 0.30 mg/dL
- sUA <6 mg/dL, n (%) (Week 16 - Pre-Infusion): 11 (100%)
- Serum Uric Acid, Change from Baseline, Mean (SD) (Week 18 - Post-Infusion): −8.97 (2.810) mg/dL
- Serum Uric Acid, Change from Baseline, Median (Week 18 - Post-Infusion): -8.80 mg/dL
- Serum Uric Acid, Observed, Mean (SD) (Week 18 - Post-Infusion): 0.30 (0.000) mg/dL
- Serum Uric Acid, Observed, Median (Week 18 - Post-Infusion): 0.30 mg/dL
- sUA <6 mg/dL, n (%) (Week 18 - Post-Infusion): 11 (100%)
- Serum Uric Acid, Change from Baseline, Mean (SD) (Week 18 - Pre-Infusion): −8.97 (2.810) mg/dL
- Serum Uric Acid, Change from Baseline, Median (Week 18 - Pre-Infusion): -8.80 mg/dL
- Serum Uric Acid, Observed, Mean (SD) (Week 18 - Pre-Infusion): 0.30 (0.000) mg/dL
- Serum Uric Acid, Observed, Median (Week 18 - Pre-Infusion): 0.30 mg/dL
- sUA <6 mg/dL, n (%) (Week 18 - Pre-Infusion): 11 (100%)
